Results reported in patent US20090005385A1, “Treatment or Prevention of Cancer or Cardiovascular Disease with Methenyltetrahydrofolate Synthetases” (CORNELL RESEARCH FOUNDATION, INC., priority 2004, published 2009).
“And” between values parts separate entries of the source, which are not always exact repeats. Identical values can stand only once. Like-named read-outs stand apart in the source and are kept apart here.

Tests used:
MTHFS [1] = biological target: T1, MTHFS (Mus musculus, UniProt Q9D110); assay: Inhibition of MTHFS by folates/antifolates, reaction specificity (Ki, Km); type: biochemical; settings: for Km: substrate of MTHFS
T1 sequence (Q9D110 1-203): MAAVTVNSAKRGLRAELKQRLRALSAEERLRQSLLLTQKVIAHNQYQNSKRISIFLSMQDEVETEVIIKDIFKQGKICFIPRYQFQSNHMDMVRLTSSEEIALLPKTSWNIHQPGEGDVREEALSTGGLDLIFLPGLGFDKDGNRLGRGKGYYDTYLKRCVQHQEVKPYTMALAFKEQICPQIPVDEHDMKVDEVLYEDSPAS
Protocol: Tissue samples were sonicated four times for 15 s in a buffer containing 100 mM HEPES pH 7.0, 100 mM sodium chloride, 5 mM EDTA, 1% Tween-20. The solution was clarified by centrifugation. MTHFS activity was determined using a spectrophotometer by monitoring the appearance of 5,10-methenyltetrahydrofolate, which has an absorbance maximum at 355 nm. For a typical assay, 50 μL of clarified tissue supernatant was added to a quartz cuvette containing 100 μM (6S)-5-formylTHF, 1 mM Mg-ATP and 100 mM MES, pH 6.0 and the rate of 5,10-methenylTHF formation was quantified. Activity measurements were normalized to total protein that was quantified using the Lowry-Bensadoun method (Bensadoun et al., “Assay of Proteins in the Presence of Interfering Materials,” Anal Biochem 70:241-250 (1976), which is hereby incorporated by reference in its entirety).
Several 10-formyl-substituted folates were screened for their ability to inhibit wild-type MTHFS.

[2] = biological target: T2, MTHFS.oxNADA.Cu^2+ complex (Mus musculus, UniProt Q9D110); assay: MTHFS-mediated folate catabolism in vitro (HPLC, pABG formation); type: biochemical; settings: 5 min incubation, five independent experiments
T2 construct: hexa-histidine tag; made in house; host or cells: E. coli BL21 Star
T2 sequence (Q9D110 1-203): T1 sequence (Q9D110 1-203)
Protocol: Recombinant mouse MTHFS protein (50 μM) was incubated with 50 μM CuCl2, 50 μM NADA (oxidized with equimolar amounts of sodium periodate, extracted with ethyl acetate, and diluted 1:1 with 1 M Tris pH 8.0), in 50 mM Tris pH 8.0 for 5 min, then dialyzed against 2 L of 50 mM Tris pH 8.0 at 4° C. for 5 hours to remove unbound CuCl2 and oxidized NADA. (6S)-[^3H]-5-methylTHF or (6S)-[^3H]-5-formylTHF, were evaporated to dryness using a speedvac, resuspended in 20 μL of 50 μM unlabeled (6S)-5-methylTHF or (6S)-5-formylTHF in 100 mM MES pH 6.5, then approximately 275,000 cpm of the labeled folate was added immediately to either the dialyzed mouse MTHFS protein or the dialysis buffer as a control. The mixture was incubated 5 min at room temperature, then either analyzed immediately by HPLC or flash frozen using dry ice/ethanol. The reactions were spiked with a mixture of unlabeled pABG, (6R,S)-5-formylTHF, and (6S)-5-methylTHF, then analyzed on a Shimadzu HPLC equipped with a diode array UV spectrophotometric detector and a Luna 5μ 250×4.6 mm C18 column (Phenomenex). […] For each analysis, 1.0 ml fractions were collected into scintillation tubes, and the tritium was quantified using a Beckman LS 6500 liquid scintillation counter. […]

MTHFS [3] = biological target: T3, MTHFS (Homo sapiens, UniProt P49914); settings: cited from earlier work
T3 sequence (P49914 1-203): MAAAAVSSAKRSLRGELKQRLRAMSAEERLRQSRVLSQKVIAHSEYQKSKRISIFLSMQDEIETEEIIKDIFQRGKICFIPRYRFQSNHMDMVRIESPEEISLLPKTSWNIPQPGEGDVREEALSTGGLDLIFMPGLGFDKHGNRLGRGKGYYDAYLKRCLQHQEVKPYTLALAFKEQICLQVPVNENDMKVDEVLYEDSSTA

MCF-7 cells [4] = assay: Folate turnover in cultured cells (pulse-chase); type: cell-based, human; settings: 20 μM in chase medium
Protocol: Cell monolayers at 75% confluence were washed with PBS, then labeled for 12 h in defined αMEM lacking folate and glycine and supplemented with 25 nM (6S)-[^3H]5-formylTHF. For the chase, cell monolayers were washed with 10 ml of PBS, trypsinized, and pelleted by centrifugation. The cells were seeded in triplicate (1×10^6 cells) into 100 mm culture plates containing 10 ml of defined αMEM supplemented with 2 μM folic acid. Catecholamines (20 μM dopamine, NADA, and L-dopa) were prepared freshly and added to the chase media prior to the addition of labeled cells. Cells were harvested at defined time points, the medium was removed and the tritium in the medium was quantified. The cell monolayers were washed with PBS and lysed with 0.2 M ammonium hydroxide. Tritium remaining in the cells was quantified using a Beckman LS 8100 liquid scintillation counter.
Catecholamine availability may be rate limiting for MTHFS-catalyzed folate catabolism in MCF-7 cells. The effects of exogenous catecholamines on folate turnover rates were determined using pulse-chase analyses in MCF-7 cells. Folate turnover in MCF-7 cells labeled with [^3H]-5-formylTHF is biphasic, with an initial rapid phase of turnover followed by a slower phase (Anguera et al., J. Biol. Chem. 278:29856-29862 (2003), which is hereby incorporated by reference in its entirety). Addition of 20 μM NADA to the chase medium increased the magnitude of the rapid phase of folate turnover by 12% compared to untreated cells (FIG. 11A). […] To distinguish between these two mechanisms, 20 μM dopamine and L-dopa were added to the chase medium. Dopamine is the precursor of NADA, and both dopamine and L-dopa can function as oxidants following oxidation of their diphenolic ring generating dopamine-quinone or dopa-quinone (Rescigno et al., Biochemical Pharmacology 56:1089-1096 (1998); Graham, D. G. Mol. Pharmacol. 14:633-643 (1978), which are hereby incorporated by reference in their entirety). […] The addition of dopamine to the culture medium increased the magnitude of the rapid phase of folate turnover by only 4% relative to untreated cells (FIG. 11A). The minor effect of dopamine on folate turnover may reflect N-acetyltransferase-mediated dopamine acetylation that generating NADA. […] In summary, the pulse chase experiments indicate that NADA may be limiting for in vivo folate catabolism, and NADA may function specifically as the electron acceptor molecule for MTHFS-mediated folate catabolism.

MCF-7 cells [5] = assay: Radiolabeled folate accumulation in cultured cells treated with catecholamines; type: cell-based, human; settings: 12 h, 25 nM (6S)-[^3H]-5-formylTHF, 0-150 μM catecholamine
Protocol: Cell monolayers at 70% confluence in 6-well plates were labeled for 12 h in defined αMEM lacking folate and glycine, but supplemented with 25 nM (6S)-[^3H]5-formylTHF and 0, 25 μM, 50 μM, 75 μM, 100 μM, or 150 μM NADA, dopamine, or epinephrine. Cells were harvested by washing with 5 mL PBS, trypsinized, and pelleted by centrifugation and viable cells (determined by their ability to exclude trypan blue) were quantified. The cell pellets were lysed with 0.2 M ammonium hydroxide, and the intracellular tritium was quantified using a Beckman LS 8100 liquid scintillation counter.
Because the addition of NADA to the chase medium increased folate turnover rates in MCF-7 cells, the effects of various catecholamines on [^3H]folate accumulation was investigated. Cells were cultured for 12 h in defined αMEM medium containing 25 nM (6S)-[^3H]-5-formylTHF and various concentrations of NADA, dopamine, and epinephrine, and cellular [^3H]folate content was determined.

[6] = 37° C., pH 6.0, inhibitor of MTHFS, read-out: Ki

| Ki (MTHFS [1]; [6]) [µM] | Structure (SMILES) | also measured |
| --- | --- | --- |
| 0.03 ± 0.01 | Nc1nc2c(c(=O)[nH]1)NC(CN(C=O)c1ccc(C(=O)N[C@@H](CCC(=O)N[C@@H](CCC(=O)N[C@@H](CCC(=O)O)C(=O)O)C(=O)O)C(=O)O)cc1)CN2 (mixture of isomers) [(6RS)10-formylTHFGlu3] | fold increased affinity (Ki) compared to the substrate 5-formylTHF triglutamate (Km) (MTHFS [1]): 13 fold |
| 0.19 ± 0.02 | Nc1nc2c(c(=O)[nH]1)NC(CCN(C=O)c1ccc(C(=O)NC(CCC(=O)O)C(=O)O)cc1)CN2 (racemic) [(6RS)10-formylTHHF] | Ki fold lower than the Ki for 5-formylTHHF (MTHFS [1]): 3 fold |
| 5 ± 2 | Nc1nc2c(c(=O)[nH]1)NC(CN(C=O)c1ccc(C(=O)O)cc1)CN2 (racemic) [(6RS)10-formylTHPteroate] |  |
| 17 ± 3 | Nc1nc2ncc(CNc3ccc(C(=O)N[C@@H](CCC(=O)N[C@@H](CCC(=O)N[C@@H](CCC(=O)O)C(=O)O)C(=O)O)C(=O)O)cc3)nc2c(=O)[nH]1 [folic acidGlu3] |  |
| 1 ± 0.3 | Nc1nc2ncc(CNc3ccc(C(=O)NC(CCC(=O)NC(CCC(=O)NC(CCC(=O)NC(CCC(=O)NC(CCC(=O)O)C(=O)O)C(=O)O)C(=O)O)C(=O)O)C(=O)O)cc3)nc2c(=O)[nH]1 (stereo not drawn) [folic acidGlu5] |  |
| 58 ± 5 | Nc1nc2ncc(CNc3ccc(C(=O)N[C@@H](CCC(=O)O)C(=O)O)cc3)nc2c(=O)[nH]1 [folic acid] |  |

The remaining lines, values behind:

| Structure (SMILES) | Ki (MTHFS [1]; [6]) [µM] | also measured |
| --- | --- | --- |
| CN(CC1CNc2nc(N)[nH]c(=O)c2N1C=O)c1ccc(C(=O)N[C@@H](CCC(=O)N[C@@H](CCC(=O)N[C@@H](CCC(=O)O)C(=O)O)C(=O)O)C(=O)O)cc1 (mixture of isomers) [(6RS)5-formyl,10-methylTHFGlu3] | 20 ± 2 |  |
| CN(CC1CNc2nc(N)[nH]c(=O)c2N1C=O)c1ccc(C(=O)N[C@@H](CCC(=O)O)C(=O)O)cc1 (mixture of isomers) [(6RS)5-formyl,10-methylTHF] | 10 ± 1 |  |
| CN(CCC1CNc2nc(N)[nH]c(=O)c2N1C=O)c1ccc(C(=O)N[C@@H](CCC(=O)O)C(=O)O)cc1 (mixture of isomers) [(6RS)5-formyl,10-methylTHHF] | 6 ± 3 |  |
| Nc1nc2c(c(=O)[nH]1)N(C=O)C(CNc1ccc(C(=O)NC(CCC(=O)NC(CCC(=O)NC(CCC(=O)O)C(=O)O)C(=O)O)C(=O)O)cc1)CN2 (racemic) [(6RS)5-formylTHFGlu3] |  | Km (MTHFS [1]; 37° C., pH 6.0): 0.4 ± 0.1 µM |
| Nc1nc2c(c(=O)[nH]1)N(C=O)C(CCNc1ccc(C(=O)N[C@@H](CCC(=O)O)C(=O)O)cc1)CN2 (mixture of isomers) [(6RS)5-formylTHHF, 5-formyltetrahydrohomofolate] | 0.7 ± 0.3 |  |
| Nc1nc2c(c(=O)[nH]1)N(C=O)C(CNc1ccc(C(=O)O)cc1)CN2 (racemic) [(6RS)5-formylTHPteroate] |  | Km (MTHFS [1]; 37° C., pH 6.0): 33 ± 10 µM |
| Nc1nc2c(c(=O)[nH]1)NC(CN(C=O)c1ccc(C(=O)N[C@@H](CCC(=O)N[C@@H](CCC(=O)N[C@@H](CCC(=O)O)C(=O)O)C(=O)O)C(=O)O)cc1)CN2 (stereo partly drawn) [10-formylTHF triglutamate] |  | Ki (MTHFS [1]; natural isomer, read-out: Ki for MTHFS): 0.015 µM |
| Nc1nc2ncc(CN(C=O)c3ccc(C(=O)N[C@@H](CCC(=O)O)C(=O)O)cc3)nc2c(=O)[nH]1 [10-formylfolic acid] | 13 ± 6 | fold increase of affinity for MTHFS by N^10 formylation of folic acid (MTHFS [1]; relative to folic acid): ~5 fold |
| Nc1nc2c(c(=O)[nH]1)NC(CN(C=O)c1ccc(C(=O)N[C@@H](CCC(=O)O)C(=O)O)cc1)CN2 (stereo partly drawn) [(6R)10-formylTHF, 10-formyltetrahydrofolate] | 0.15 | fold increased affinity for MTHFS (Ki) compared to the substrate 5-formylTHF (Km) (MTHFS [1]): 56 fold and 60 fold |
| Nc1nc2c(c(=O)[nH]1)N(C=O)C(CNc1ccc(C(=O)N[C@@H](CCC(=O)O)C(=O)O)cc1)CN2 (stereo partly drawn) [(6S)5-formylTHF, 5-formyl tetrahydrofolate] |  | Km (MTHFS [1]; 37° C., pH 6.0): 10 ± 3 µM |
| CN1c2c([nH]c(N)nc2=O)NC[C@@H]1CNc1ccc(C(=O)N[C@@H](CCC(=O)O)C(=O)O)cc1 [(6S)-5-methylTHF] |  | conversion to pABG by reconstituted mouse MTHFS.oxNADA.Cu^2+ protein [2]: Approximately 1%; Ki (MTHFS [3]): 18 µM |
| N[C@@H](Cc1ccc(O)c(O)c1)C(=O)O [L-dopa] |  | folate turnover rates compared to untreated cells (MCF-7 cells [4]): did not affect folate turnover rates |
| CNC[C@H](O)c1ccc(O)c(O)c1 [epinephrine] |  | [^3H]folate accumulation (MCF-7 cells [5]): Neither the addition of dopamine nor epinephrine to culture media impaired [^3H]folate accumulation |
